# Laboratory results reported in US8546435B2, “Triazole derivatives with improved receptor activity and bioavailability properties as ghrelin antagonists of growth hormone secretagogue receptors” (AEterna Zentaris GmbH, priority 2010, dated 2013).
# Where two headings read alike, the source gives them in different places.
# Legend:
# hERG channel = hERG channel (Homo sapiens (Human), UniProt Q12809); assay: Predictor hERG Fluorescence Polarization Assay; format: binding
# From the text: The Predictor™ hERG Fluorescence Polarization Assay (Invitrogen, Karlsruhe, GER) determines whether test compounds block the hERG channel [Piper, D. R. et al., Assay Drug Dev Technol. 2008, 6(2):213-23]. The assay uses a membrane fraction containing hERG channel protein (Predictor™ hERG Membrane) and a high-affinity red fluorescent hERG channel ligand, or “tracer” (Predictor™ hERG Tracer Red), in a homogenous, fluorescence polarization (FP)-based format. Compounds that bind to the hERG channel protein (competitors) are identified by their ability to displace the tracer, resulting in a lower fluorescence polarization. The assay was performed according to guidelines of the manufacturer
# [1] = Stability in liver microsomes; format: in vitro ADME, mouse; conditions: 37° C./1 mg/ml Liver Microsomes, 10 μM
# Description: (§1) Metabolic stability in liver microsomes of different species (in the presence of NADPH, 1 mg/ml microsomal protein) was evaluated at 37° C. over time in triplicates at a test concentration of 10 μM. Loss of parent compound is measured by an HPLC-based UV detection method. For prediction of rat hepatic clearance half-lives (t1/2) were fitted from first-order rate constant k (min^−1) obtained from the slope of time versus In % remaining.
# [2] = biological target: T1, Human Ghrelin Receptor (GHS-R 1A) (Homo sapiens (Human), UniProt Q92847); assay: Calcium release, antagonist; format: cell-based; conditions: 15 minutes preincubation, then ghrelin
# T1 sequence (Q92847 whole entry): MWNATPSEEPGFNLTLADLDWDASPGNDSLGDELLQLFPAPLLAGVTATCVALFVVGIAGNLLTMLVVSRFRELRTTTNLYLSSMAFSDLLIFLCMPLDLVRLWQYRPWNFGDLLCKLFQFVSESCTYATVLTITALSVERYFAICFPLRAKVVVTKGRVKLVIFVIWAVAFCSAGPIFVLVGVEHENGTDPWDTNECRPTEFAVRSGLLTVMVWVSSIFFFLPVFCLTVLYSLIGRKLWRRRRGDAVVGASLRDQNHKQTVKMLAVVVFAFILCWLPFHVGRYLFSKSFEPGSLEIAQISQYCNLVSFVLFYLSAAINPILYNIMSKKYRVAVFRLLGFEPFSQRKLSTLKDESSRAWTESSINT
# From the text: (§2) Mouse LTK-cells (ATCC CCL-1.3) were stably transfected with a plasmid containing the CMV minimal promoter (CMVmin) linked to three cAMP response elements (CRE) followed by a luciferase reporter gene. Based on this parental cell line, single cell clones stably overexpressing the human, rat or mouse GHS-R 1A have been established and characterized with respect to suitability for the different assay formats.
# (§3) For determination of calcium release the respective cell line was loaded with Fluo-4 NW Calcium Assay Kit (Moleculare Probes/Invitrogen # F10741) for 80 min @ 37° C. After 15 minutes of preincubation with different concentrations of the test compounds ghrelin was added and the signal was monitored for 60 seconds by a FlexStation3 microplate reader (Molecular Devices).
# (§4) IC50 values were determined by using the GraphPad Prism analysis program (GraphPad Software).
# (§5) Values given are either single measurements or mean values of up to nine independent experiments performed in duplicate (binding) or quadruplicate (functional assays) measurements.
# [3] = biological target: T1, Human Ghrelin Receptor (GHS-R 1A); assay: CRE/Luc reporter gene assay, antagonist; format: cell-based; conditions: 6 h, 1 μM rolipram
# From the text: as §2
# For the CRE/Luc reporter gene assay, the mouse LTK-cells stably expressing the human GHS-1RA and a luciferase reporter gene under the control of CRE elements and the CMV minimal promoter were incubated for 6 h with 1 μM rolipram in the presence of different concentrations of AEZS-130. Subsequently, cells were lysed and ATP bioluminescence was measured in the luminescence mode on FlexStation3 (Molecular Devices).
# as §4, §5
# [4] = biological target: Mouse Ghrelin Receptor (GHS-R 1A) (Mus musculus (Mouse), UniProt Q99P50); assay: Calcium release, antagonist; format: cell-based
# Chain of Mouse Ghrelin Receptor (GHS-R 1A) (Q99P50 whole entry): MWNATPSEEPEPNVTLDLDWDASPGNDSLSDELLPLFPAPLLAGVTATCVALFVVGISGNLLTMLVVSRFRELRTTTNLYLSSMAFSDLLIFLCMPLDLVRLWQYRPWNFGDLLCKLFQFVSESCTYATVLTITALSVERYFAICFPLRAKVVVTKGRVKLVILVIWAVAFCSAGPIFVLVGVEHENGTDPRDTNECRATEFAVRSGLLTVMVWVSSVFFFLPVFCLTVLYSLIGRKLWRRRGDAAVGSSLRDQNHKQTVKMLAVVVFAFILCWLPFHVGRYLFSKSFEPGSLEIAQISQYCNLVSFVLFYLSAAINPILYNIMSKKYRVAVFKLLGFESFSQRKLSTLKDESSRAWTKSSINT
# From the text: as §2, §3, §4
# (§6) In the following table 1 results obtained for selected compounds of the invention are presented in comparison to compound 50 disclosed in WO07/020,013. Values given are either single measurements or mean values of up to nine independent experiments performed in duplicate (binding) or quadruplicate (functional assays) measurements.
# [5] = biological target: Rat Ghrelin Receptor (GHS-R 1A) (Rattus norvegicus (Rat), UniProt O08725); assay: Calcium release, antagonist; format: cell-based
# Chain of Rat Ghrelin Receptor (GHS-R 1A) (O08725 whole entry): as the sequence (Q99P50 whole entry) above, with S30P, S249A counted along it
# From the text: as §2, §3, §4, §6
# [6] = biological target: MDR-1 (P-glycoprotein, Pgp) (Homo sapiens (Human), UniProt P08183); assay: Inhibition of MDR1 ATPase (Pgp-Glo assay, SF9 membrane preparations); format: biochemical
# Chain of MDR-1 (P-glycoprotein, Pgp) (P08183 whole entry): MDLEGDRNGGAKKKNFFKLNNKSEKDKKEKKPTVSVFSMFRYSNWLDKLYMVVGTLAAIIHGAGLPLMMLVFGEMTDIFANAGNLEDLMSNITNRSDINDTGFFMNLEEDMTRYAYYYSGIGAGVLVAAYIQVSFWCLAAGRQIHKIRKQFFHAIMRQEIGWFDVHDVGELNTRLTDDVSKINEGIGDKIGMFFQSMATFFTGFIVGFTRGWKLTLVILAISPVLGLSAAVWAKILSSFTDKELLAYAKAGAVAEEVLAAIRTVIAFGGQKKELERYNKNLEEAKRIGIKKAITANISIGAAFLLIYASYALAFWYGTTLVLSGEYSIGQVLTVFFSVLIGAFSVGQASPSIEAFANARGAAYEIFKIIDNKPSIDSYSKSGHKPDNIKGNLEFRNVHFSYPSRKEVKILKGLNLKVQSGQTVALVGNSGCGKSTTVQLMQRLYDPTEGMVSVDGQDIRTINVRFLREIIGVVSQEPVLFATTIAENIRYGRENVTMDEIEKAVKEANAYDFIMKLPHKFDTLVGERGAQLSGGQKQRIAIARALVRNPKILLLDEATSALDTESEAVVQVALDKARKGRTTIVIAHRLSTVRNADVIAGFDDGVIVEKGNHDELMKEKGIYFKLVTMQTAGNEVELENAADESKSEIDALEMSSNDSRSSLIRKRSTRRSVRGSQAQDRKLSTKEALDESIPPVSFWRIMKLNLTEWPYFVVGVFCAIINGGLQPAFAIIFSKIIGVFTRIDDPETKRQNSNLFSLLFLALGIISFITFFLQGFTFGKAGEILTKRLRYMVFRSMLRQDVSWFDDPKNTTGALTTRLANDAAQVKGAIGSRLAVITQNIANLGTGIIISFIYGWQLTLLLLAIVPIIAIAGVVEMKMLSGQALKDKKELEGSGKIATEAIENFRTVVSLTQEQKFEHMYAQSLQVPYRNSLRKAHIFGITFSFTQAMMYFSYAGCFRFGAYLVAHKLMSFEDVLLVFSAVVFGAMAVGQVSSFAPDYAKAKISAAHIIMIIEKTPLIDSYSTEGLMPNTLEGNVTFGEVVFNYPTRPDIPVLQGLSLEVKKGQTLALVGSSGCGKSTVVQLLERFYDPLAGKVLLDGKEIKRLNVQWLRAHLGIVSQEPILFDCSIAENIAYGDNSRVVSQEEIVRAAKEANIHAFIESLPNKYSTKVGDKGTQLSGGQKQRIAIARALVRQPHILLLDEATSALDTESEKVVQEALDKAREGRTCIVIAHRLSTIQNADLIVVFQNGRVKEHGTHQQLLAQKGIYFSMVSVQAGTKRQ
# Description: For detection of MDR-1 (P-glycoprotein, Pgp) ATPase activity commercially available membrane preparations of MDR-1 overexpressing SF9 insect cells (SB-MDR1-Sf9-ATPase Membrane; 2.5 mg/500 μL; Solvo/tebu-bio #168SB-MDR1-Sf9-ATPase) were used. Since transport by MDR-1 is ATP-dependent, ATP consumption indicates transport activity of MDR-1. ATP consumption is detected as a decrease in luminescence from a second reaction with a recombinant firefly luciferase by using the Pgp-Glo™ Assay Kit (Promega # V3591).
# [7] = Stability in liver microsomes; format: in vitro ADME, rat; conditions: @37° C./1 mg/ml Liver Microsomes, 10 μM
# Description: as §1
# [8] = biological target: T1, Human Ghrelin Receptor (GHS-R 1A); assay: Competitive binding, iodinated ghrelin tracer, intact LTK-cells overexpressing GHS-R 1A; conditions: 60 min at 37° C.
# From the text: as §2
# For receptor competitive binding studies, iodinated ghrelin was used as a tracer at conditions of about 80% saturation binding. Different concentrations of the test compounds were analyzed for displacement of the tracer. For this purpose, the suspension of intact cells plus tracer mix and different test compound concentrations was layered on top of silicon/paraffin oil, incubated for 60 min at 37° C. and subjected to centrifugation. After freezing in liquid nitrogen the cell pellets were separated from the supernatant by cutting the tubes in the intermediate silicon/paraffin oil section and analyzed by γ-radiation analysis. The amount of unspecific binding was determined by including unlabeled ghrelin at 1 μM final concentration.
# as §4, §5
# CYP3A4 = CYP3A4 (Homo sapiens (Human), UniProt P08684); assay: CYP3A4 inhibition in human liver microsomes, direct and metabolism-dependent; format: in vitro ADME
# Chain of CYP3A4 (P08684 whole entry): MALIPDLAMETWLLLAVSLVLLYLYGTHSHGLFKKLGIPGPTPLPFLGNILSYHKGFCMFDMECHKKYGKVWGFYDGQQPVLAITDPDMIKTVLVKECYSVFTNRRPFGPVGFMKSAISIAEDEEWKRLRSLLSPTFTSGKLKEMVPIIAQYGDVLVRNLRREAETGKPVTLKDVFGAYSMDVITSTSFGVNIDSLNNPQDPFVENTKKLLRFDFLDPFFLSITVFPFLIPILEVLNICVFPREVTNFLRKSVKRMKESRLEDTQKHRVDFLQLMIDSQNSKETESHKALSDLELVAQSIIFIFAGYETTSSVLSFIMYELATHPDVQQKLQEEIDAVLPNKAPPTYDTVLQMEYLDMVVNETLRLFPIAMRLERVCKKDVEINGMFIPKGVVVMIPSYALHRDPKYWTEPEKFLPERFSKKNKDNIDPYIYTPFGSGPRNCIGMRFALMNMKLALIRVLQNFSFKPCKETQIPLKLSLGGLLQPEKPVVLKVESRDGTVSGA
# Description: Direct and metabolism-dependent inhibition of CYP enzymes are assessed with specific marker substrates by a HPLC-based UV detection method in human liver microsomes. Incubations are carried out as doublets with final concentrations ranging from 0.01 to 200 μM (30 min, 37° C.). Metabolism-dependent inhibition was assessed by incubation for 30 minutes in the presence of NADPH prior to the addition of marker substrate to allow the generation of metabolites. Percent inhibition is plotted against concentration to calculate or extrapolate IC50 values from the sigmoid curve.
# [9] = Stability in liver microsomes; format: in vitro ADME, human; conditions: @37° C./1 mg/ml Liver Microsomes, 10 μM
# Description: as §1
# [10] = CaCo-2 permeability assay; format: in vitro ADME; conditions: human; for Papp A→B at 2 h: a to b, read-out: CaCo-2 Assay Papp ab; for Papp A→B at 2 h / Papp B→A at 2 h: 3 or 5 μM, 2 hours at 37° C.; for Papp B→A at 2 h: b to a, read-out: CaCo-2 Assay Papp ba; for efflux ratio at 2 h: read-out: CaCo-2 Assay ba/ab
# Description: For the CaCo-2 permeability assay 80.000 CaCo-2 cells (ATCC HTB-37) were seeded in DMEM supplemented with 10% FCS, 1% Penicillin/Streptomycin and 1% non-essential amino acids per 24 well transwell plate (Corning 3397) and were grown for 21 days by changing the media every second day. On day 21 the medium was replaced by HBSS buffer (Invitrogen #14065) supplemented with 0.25% and 1% BSA for the donor and acceptor compartment, respectively. The compounds were added to the respective donor compartment in a concentration of 3 or 5 μM and were incubated for 2 hours at 37° C. The respective compound concentrations were determined by LC-MS analytics using an API 2000. Data analysis was performed as described by Sun and Pang 2008, Drug Metabolism and Disposition 36, 102-123.
# [11] = 15 minutes preincubation, then ghrelin, read-out: Mouse Ghrelin Receptor Antagonist Calcium Release IC50
# [12] = 15 minutes preincubation, then ghrelin, read-out: Rat Ghrelin Receptor Antagonist Calcium Release IC50
# [13] = marker substrate midazolam, 30 minutes preincubation with NADPH, read-out: CYP3A4 Inhibition Midazolam Preincubation EC50
# [14] = marker substrate midazolam, direct inhibition, human liver microsomes, read-out: CYP3A4 Inhibition Midazolam EC50
# Chain of hERG channel (Q12809 whole entry): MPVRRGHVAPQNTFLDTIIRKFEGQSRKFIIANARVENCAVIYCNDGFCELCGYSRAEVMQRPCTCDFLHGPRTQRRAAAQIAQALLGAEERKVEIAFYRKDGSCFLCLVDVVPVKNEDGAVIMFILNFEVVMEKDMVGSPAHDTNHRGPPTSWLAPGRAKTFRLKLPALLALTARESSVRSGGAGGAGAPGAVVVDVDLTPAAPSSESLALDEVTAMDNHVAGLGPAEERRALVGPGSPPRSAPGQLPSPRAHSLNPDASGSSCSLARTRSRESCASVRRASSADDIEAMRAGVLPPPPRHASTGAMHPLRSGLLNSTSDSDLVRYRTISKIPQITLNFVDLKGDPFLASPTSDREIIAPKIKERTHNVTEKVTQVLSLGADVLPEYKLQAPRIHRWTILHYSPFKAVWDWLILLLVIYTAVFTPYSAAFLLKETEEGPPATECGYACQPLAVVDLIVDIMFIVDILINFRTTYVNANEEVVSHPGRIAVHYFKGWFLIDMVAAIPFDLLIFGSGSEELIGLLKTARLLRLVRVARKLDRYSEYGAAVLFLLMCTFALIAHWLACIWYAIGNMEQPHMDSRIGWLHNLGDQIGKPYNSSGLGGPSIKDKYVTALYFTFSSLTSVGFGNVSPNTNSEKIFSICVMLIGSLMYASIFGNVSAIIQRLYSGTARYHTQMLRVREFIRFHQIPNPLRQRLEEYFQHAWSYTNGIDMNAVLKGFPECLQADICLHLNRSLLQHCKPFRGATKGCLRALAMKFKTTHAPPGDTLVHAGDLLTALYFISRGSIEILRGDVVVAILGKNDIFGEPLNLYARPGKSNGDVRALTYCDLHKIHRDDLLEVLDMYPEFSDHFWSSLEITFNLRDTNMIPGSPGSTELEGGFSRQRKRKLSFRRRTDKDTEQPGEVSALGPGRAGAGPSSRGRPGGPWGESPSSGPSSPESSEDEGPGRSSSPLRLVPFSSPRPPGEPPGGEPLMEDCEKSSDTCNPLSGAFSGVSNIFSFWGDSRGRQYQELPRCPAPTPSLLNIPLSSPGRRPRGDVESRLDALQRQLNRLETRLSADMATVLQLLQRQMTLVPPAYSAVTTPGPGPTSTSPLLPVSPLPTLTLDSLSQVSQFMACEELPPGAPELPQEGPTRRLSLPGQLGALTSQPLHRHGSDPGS
Structure (SMILES),hERG Predictor EC50 (hERG channel),Stability in Liver Microsomes Mouse % Remaining (@30 min) [1] [%],IC50 [2] [nM],IC50 [3] [nM],"IC50 [4, 11] [nM]","IC50 [5, 12] [nM]",Inhibition of MDR1 ATPase EC50 [6],Stability in Liver Microsomes Rat % Remaining after 1 h Incubation [7] [%],IC50 [8] [nM],EC50 (CYP3A4; [13]) [nM],EC50 (CYP3A4; [14]) [nM],Stability in Liver Microsomes Human % Remaining after 1 h Incubation [9] [%],Papp A→B at 2 h [10] [×10⁻⁶ cm/s],Papp B→A at 2 h [10] [×10⁻⁶ cm/s],efflux ratio at 2 h [10],EC50 (hERG channel) [nM],"EC50 (CYP3A4; marker substrate testosteron, 30 minutes preincubation with NADPH, read-out: CYP3A4 Inhibition Testosteron Preincubation EC50) [nM]","EC50 (CYP3A4; marker substrate testosteron, direct inhibition, human liver microsomes, read-out: CYP3A4 Inhibition Testosteron EC50) [nM]",IC50 [4] [nM],IC50 [5] [nM]
"COc1ccc(Cn2c([C@@H](Cc3ccccc3)NC=O)nnc2[C@@H](Cc2c[nH]c3ccccc23)NC(=O)c2ccccn2)cc1.O=C(O)C(F)(F)F [Cpd 5, Pyridine-2-carboxylic acid [(R)-1-[5-((R)-1-formylamino-2-phenyl-ethyl)-4-(4-methoxy-benzyl)-4H-[1,2,4]triazol-3-yl]-2-(1H-indol-3-yl)-ethyl]-amide]",no full dose,0.0,3.1,8.3,89.3,290,no inhibition,41.9,3.4,1200,3800,0,1.26,16.8,13.3,–,–,–,–,–
"COc1ccc(Cn2c(CCc3ccccc3)nnc2[C@@H](Cc2c[nH]c3ccccc23)NC(=O)OCC(C)C)cc1.O=C(O)C(F)(F)F [Cpd 17, {(R)-2-(1H-Indol-3-yl)-1-[4-(4-methoxy-benzyl)-5-phenethyl-4H-[1,2,4]triazol-3-yl]-ethyl}-carbamic acid isobutyl ester]",–,0.0,31.4,21.1,607,925,no full dose,24.8,8.6,–,–,0,22.4,10,0.45,3680,2000,10400,–,–
"COc1ccc(Cn2c([C@@H](Cc3ccccc3)NC(C)=O)nnc2[C@@H](Cc2c[nH]c3ccccc23)NC(=O)c2ccccn2)cc1.O=C(O)C(F)(F)F [Cpd 4, Pyridine-2-carboxylic acid [(R)-1-[5-((R)-1-acetylamino-2-phenyl-ethyl)-4-(4-methoxy-benzyl)-4H-[1,2,4]triazol-3-yl]-2-(1H-indol-3-yl)-ethyl]-amide]",no full dose,0.0,–,–,–,–,no full dose,46.7,–,2300,3900,9.1,1.41,25.4,18,–,–,–,68.7,239
